Reference: patent US10660967B2, “Curcumin conjugates and methods of use thereof” (priority 2016, dated 2020)
Read-outs that look alike come from different tables or passages of the source.

Tests used:
[1] = tested on: PHA-stimulated splenocytes; experiment: Proliferative response of PHA-stimulated splenocytes (MTT assay); assay type: cell-based; conditions: for Stimulation Index (average ± SD): PHA 5 μg/ml, 72 hr, compounds at 5 μM (method says 10 μM), ratio of O.D. versus vehicle control
Method: Immunomodulatory effects of the synthesized curcumin conjugates on the proliferative response of PHA-stimulated splenocytes were evaluated. The effect of curcumin and its amino acid conjugates on splenocyte viability and proliferation in response to a T cell miotgen (Phytohaemagglutinin; PHA) was evaluated using the MTT assay. Freshly prepared splenocytes (1×10^6 cells/200 μl/well) were cultured in a 96-well U-bottom microtiter plate (Nunc) in complete medium. Cells were treated with tested compounds at a final concentration of 10 μM, vehicle (DMSO) or left untreated in triplicate then incubated at 37° C. and 5% CO2. When testing the immunoregulatory effects of the compounds on splenocyte stimulation, PHA (5 μg/ml) was added to the culture media to induce T cell proliferation. The proliferative response to PHA+vehicle and vehicle alone served as controls. After 72 hr, media were removed after pelleting the cells by centrifugation and MTT salt solution (5 mg/ml) was added into each well then incubated at 37° C. for 4 h. Afterwards, formazan crystals were dissolved by adding 150 μl 10% sodium dodecyl sulfate (SDS). Absorbance was measured with a spectrophotometer at 570 nm and reference wavelength of 690 nm.
Splenocyte stimulation index was determined as the ratio of O.D. values in tested compounds versus vehicle control cultures.

[2] = tested on: lipopolysaccharide-stimulated peritoneal macrophages; experiment: Production of nitric oxide by lipopolysaccharide-stimulated peritoneal macrophages (Greiss reagent); assay type: cell-based; parameters: Potency (%): % inhibition of nitric oxide production relative to lipopolysaccharide-stimulated macrophages: concentration or dose not given beside the values; conditions: LPS-stimulated peritoneal macrophages; for Nitric oxide (nitrite) concentration, μM (average ± SD): 24 h, nitrite by Greiss reagent
Method: The effects of the synthesized curcumin conjugates on the production of nitric oxide (μM) by lipopolysaccharide-stimulated peritoneal macrophages were evaluated.
Two milliliters of macrophage cells were seeded in 12-well tissue culture plates in nitrite-free medium supplemented with 0.1% bovine serum albumin and incubated at 37° C. LPS±epinephrine, norepinephrine, or dopamine at […] concentrations was added to some wells. The concentrations of LPS used ranged from 0.5 to 10 ng/ml. After incubation for 24 h, supernatants were collected for measuring nitric oxide (NO) by spectrophotometry. The production of NO was determined from the accumulation of nitrite (NO2), the metabolic end product of NO metabolism, in the medium using the Greiss reagent. About equal volumes (100 μl) of sample and Greiss reagent (1:1 mixture of 1% sulfanilamide in 5% phosphoric acid, and 0.1% a-naphthylamine in distilled water) were mixed and incubated at room temperature for 15 min, and absorbance was measured at 532 nm on a spectrophotometer.

[3] = tested on: Salmonella typhi ATCC19430; experiment: Antimicrobial MIC, agar dilution; assay type: cell-based; conditions: Salmonella enterica, read-out: Minimum inhibitory concentration (MIC)
[4] = tested on: HCT116 (colon) carcinoma cell line; experiment: Anti-tumor properties, MTT; assay type: cell-based; conditions: Homo sapiens, HCT-116; HCT116, 100 μM, 72 h; read-out: Percentage growth of tumor cell lines treated with the tested compounds (±SD)
Method: (§1) Anti-tumor properties of curcumin conjugates were evaluated. The synthesized curcumin-amino acid conjugates and curcumin itself were screened for their antitumor properties against human tumor cell lines utilizing HepG2 (hepatocellular), MCF7 (breast), and HCT116 (colon) carcinoma cell lines by the standard mitochondrial dependent reduction of yellow MTT [3-(4,5-dimethylthiazol-2-yl)-2,5-diphenyl-tetrazolium bromide] to purple formazan technique. Cancer cells were obtained from the Egyptian Company for Production of Vaccines, Sera and Drugs (VACSERA), Cairo, Egypt. Media, chemicals and supplies for the bio-assay were obtained from Biowest, Gibco and Lonza Companies. Cells were suspended in RPMI-1640 medium for HepG2, DMEMF12 for MCF-7, and DMEM for HCT116 in addition to 1% antibiotic-antimycotic mixture (10 […] potassium penicillin, 10 […] streptomycin sulfate and […] amphotericin B), 10% fetal bovine serum and 1% L-glutamine at 37° C., under 5% CO2 and 95% humidity. Cells were seeded at a concentration of 10×10^3 cells per well in fresh complete growth medium in 96-well tissue culture microtiter plates for 24 h. Media was aspirated, 180 μL fresh medium (without serum) were added and cells were incubated with different concentrations of sample to give a final concentration of 100 μM. 0.5% DMSO was used as a negative control and doxorubicin was used as a positive control (standard reference). Triplicate wells were prepared for each individual tested compound/dose. After 72 h of incubation, the medium was aspirated, 40 μL MTT salt (2.5 mg ml^1) were added to each well and incubated for an additional 4 h at 37° C. To stop the reaction and dissolve the formed crystals, 200 μL of 10% sodium dodecyl sulfate (SDS) in deionized water were added to each well and incubated overnight at 37° C. The absorbance was then measured at 595 nm with a reference wavelength of 620 nm. Data were collected as mean values for experiments performed in triplicates for each compound which had been measured by MTT assay.
(§2) The percentage of cell survival was calculated according to equation (4): […]
(§3) The IC50 was determined using Graph-Pad PRISM version-5 software. Statistical calculations for determination of the mean and standard deviation (SD) values were determined by SPSS 16 software.

[5] = tested on: HepG2 (hepatocellular) carcinoma cell line; experiment: Anti-tumor properties, MTT; assay type: cell-based; conditions: Homo sapiens; HepG2, 100 μM, 72 h; read-out: Percentage growth of tumor cell lines treated with the tested compounds (±SD)
Method: as §1, §2, §3

[6] = tested on: MCF7 (breast) carcinoma cell line; experiment: Anti-tumor properties, MTT; assay type: cell-based; conditions: Homo sapiens; MCF7, 100 μM, 72 h; read-out: Percentage growth of tumor cell lines treated with the tested compounds (±SD)
Method: as §1, §2, §3

MCF-7 cells = experiment: Effect on doxorubicin induced cytotoxicity (MTT); conditions: for Percentage of viable cells MCF-7 (average ± SD): 10 μM DOX in combination with 100 μM curcumin derivative, 48 hr; for viability at 100 µM: Homo sapiens, MCF7, 48 h, read-out: Percentage of viable cells MCF-7 (average ± SD)
Method: The effects of curcumin conjugates on doxorubicin induced cytotoxicity were evaluated. In order to further examine whether curcumin derivatives can enhance conventional chemotherapeutic agents, MCF-7 cells were treated with 100 μM curcumin derivatives alone or in combination with 10 μM doxorubicin (DOX) for 48 hr. Control cultures received only medium, vehicle (DMSO), or vehicle+DOX. The percentage of viable cells was determined by MTT assay according to equation (5): […]

[7] = tested on: Staphylococcus aureus ATCC25923; experiment: Antimicrobial MIC, agar dilution
[8] = tested on: Streptococcus pyogenes ATCC19615; experiment: Antimicrobial MIC, agar dilution
[9] = tested on: Pseudomonas aeruginosa ATCC27853; experiment: Antimicrobial MIC, agar dilution
[10] = tested on: Candida albicans (local isolate); experiment: Antimicrobial MIC, agar dilution; conditions: Candida albicans, read-out: Minimum inhibitory concentration (MIC)
[11] = ATCC25923, 18 h, read-out: Minimum inhibitory concentration (MIC)
[12] = ATCC25923, read-out: Minimum inhibitory concentration (MIC)
[13] = ATCC19615, 18 h, read-out: Minimum inhibitory concentration (MIC)
[14] = ATCC19615, read-out: Minimum inhibitory concentration (MIC)
[15] = ATCC27853, 18 h, read-out: Minimum inhibitory concentration (MIC)
[16] = ATCC27853, read-out: Minimum inhibitory concentration (MIC)

| Structure (SMILES) | Stimulation Index (average ± SD) [1] | Potency (%): % inhibition of nitric oxide production relative to lipopolysaccharide-stimulated macrophages [2] [%] | Nitric oxide (nitrite) concentration, μM (average ± SD) [2] [µM] | MIC ([3]; 18 h) [µg/mL] | MIC [3] [µM] | activity at 100 µM [4] [%] | activity at 100 µM [5] [%] | activity at 100 µM [6] [%] | Percentage of viable cells MCF-7 (average ± SD) (MCF-7 cells) | viability at 100 µM (MCF-7 cells) [%] | MIC [7, 11] [µg/mL] | MIC [7, 12] [µM] | MIC [8, 13] [µg/mL] | MIC [8, 14] [µM] | MIC [9, 15] [µg/mL] | MIC [9, 16] [µM] | MIC ([10]; 18 h) [µg/mL] | MIC [10] [µM] | splenocyte proliferation, fold relative to untreated control cells ([1]; in the presence of PHA, text of b265) [fold] |
| --- | --- | --- | --- | --- | --- | --- | --- | --- | --- | --- | --- | --- | --- | --- | --- | --- | --- | --- | --- |
| COc1cc(/C=C/C(=O)CC(=O)/C=C/c2ccc(OC(=O)[C@H](C)NC(=O)OCc3ccccc3)c(OC)c2)ccc1OC(=O)[C@H](C)NC(=O)OCc1ccccc1 [Cbz-Ala-Cur, ((1E,6E)-3,5-dioxohepta-1,6-diene-1,7-diyl)bis(2-methoxy-4,1-phenylene) (2S,2′S)-bis(2-(((benzyloxy)carbonyl)amino)propanoate)] | 2.70 ± 0.25 | 8.86 | 24.89 ± 1.65 | 0.5 | 0.642 | 86.6 ± 6.2 | 82.3 ± 4.2 | 70 ± 4.1 | 46.65 ± 2.06 | 99.5 ± 4.47 | 0.25 | 0.321 | 0.125 | 0.161 | 2 | 2.57 | 2 | 2.57 |  |
| COc1cc(/C=C/C(=O)CC(=O)/C=C/c2ccc(OC(=O)CNC(=O)OCc3ccccc3)c(OC)c2)ccc1OC(=O)CNC(=O)OCc1ccccc1 [Cbz-Gly-Cur, ((1E,6E)-3,5-dioxohepta-1,6-diene-1,7-diyl)bis(2-methoxy-4,1-phenylene) bis(2-(((benzyloxy)carbonyl)amino)acetate)] | 2.64 ± 0.10 | 10.11 | 24.55 ± 0.66 | 0.5 | 0.666 | 88.1 ± 2.6 | 79.8 ± 8.8 | 60 ± 2.7 | 45.44 ± 1.88 | 97.4 ± 5.3 | 0.125 | 0.166 | 0.125 | 0.166 | 1 | 1.33 | 0.5 | 0.666 |  |
| COc1cc(/C=C/C(=O)CC(=O)/C=C/c2ccc(OC(=O)[C@H](CC(C)C)NC(=O)OCc3ccccc3)c(OC)c2)ccc1OC(=O)[C@H](CC(C)C)NC(=O)OCc1ccccc1 [Cbz-Leu-Cur, ((1E,6E)-3,5-dioxohepta-1,6-diene-1,7-diyl)bis(2-methoxy-4,1-phenylene) (2S,2′S)-bis(2-(((benzyloxy)carbonyl)amino)-4-methylpentanoate)] | 2.83 ± 0.17 | 4.57 | 26.06 ± 0.65 | 0.25 | 0.29 | 94.7 ± 5.8 | 85.1 ± 5.7 | 85.7 ± 1.2 | 50.17 ± 4.94 | 98.2 ± 3.44 | 0.125 | 0.145 | 0.125 | 0.145 | 0.125 | 0.145 | 0.5 | 0.579 |  |
| COc1cc(/C=C/C(=O)CC(=O)/C=C/c2ccc(OC(=O)[C@H](Cc3ccccc3)NC(=O)OCc3ccccc3)c(OC)c2)ccc1OC(=O)[C@H](Cc1ccccc1)NC(=O)OCc1ccccc1 [Cbz-Phe-Cur, ((1E,6E)-3,5-dioxohepta-1,6-diene-1,7-diyl)bis(2-methoxy-4,1-phenylene) (2S,2′S)-bis(2-(((benzyloxy)carbonyl)amino)-3-phenylpropanoate)] | 2.91 ± 0.13 | 3.60 | 26.33 ± 0.52 | 0.125 | 0.134 | 96.4 ± 4 | 99.6 ± 8.7 | 69.3 ± 3 | 43.40 ± 4.74 | 105 ± 4.5 | 0.125 | 0.134 | 0.125 | 0.134 | 0.25 | 0.269 | 2 | 2.15 | 3.81 |
| COc1cc(/C=C/C(=O)CC(=O)/C=C/c2ccc(OC(=O)[C@H](Cc3c[nH]c4ccccc34)NC(=O)OCc3ccccc3)c(OC)c2)ccc1OC(=O)[C@H](Cc1c[nH]c2ccccc12)NC(=O)OCc1ccccc1 [Cbz-Trp-Cur, ((1E,6E)-3,5-dioxohepta-1,6-diene-1,7-diyl)bis(2-methoxy-4,1-phenylene) (2S,2′S)-bis(2-(((benzyloxy)carbonyl)amino)-3-(1H-indol-3-yl)propanoate)] | 2.60 ± 0.12 | 11.08 | 24.28 ± 0.82 | 0.125 | 0.124 | 100 ± 7 | 97.6 ± 6.8 | 79.5 ± 0.6 | 45.17 ± 4.04 | 98.2 ± 2.96 | 0.125 | 0.124 | 0.5 | 0.496 | 0.25 | 0.248 | 1 | 0.991 |  |
